# Measurements from PubChem BioAssay (NCI).
#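 How tested: cells in 96-well plates exposed to compound for 48 hours at five concentrations. TGI is the concentration that stops growth completely.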
# Tests used:
# Assay in all cases: DTP human tumour cell line panel, 48 h
# 786-0 renal = system: 786-0 renal
# A498 renal = system: A498 renal
# A549 NSCLC = system: A549 NSCLC
# ACHN renal = system: ACHN renal
# BT-549 breast = system: BT-549 breast
# CAKI-1 renal = system: CAKI-1 renal
# COLO 205 colon = system: COLO 205 colon
# DU-145 prostate = system: DU-145 prostate
# EKVX NSCLC = system: EKVX NSCLC
# HCC-2998 colon = system: HCC-2998 colon
# HCT-116 colon = system: HCT-116 colon
# HCT-15 colon = system: HCT-15 colon
# HL-60(TB) leukemia = system: HL-60(TB) leukemia
# HOP-62 NSCLC = system: HOP-62 NSCLC
# HOP-92 NSCLC = system: HOP-92 NSCLC
# HS 578T breast = system: HS 578T breast
# HT29 colon = system: HT29 colon
# IGROV1 ovarian = system: IGROV1 ovarian
# K-562 leukemia = system: K-562 leukemia
# KM12 colon = system: KM12 colon
# LOX IMVI melanoma = system: LOX IMVI melanoma
# M14 melanoma = system: M14 melanoma
# MALME-3M melanoma = system: MALME-3M melanoma
# MCF7 breast = system: MCF7 breast
# MDA-MB-231 breast = system: MDA-MB-231 breast
# MDA-MB-435 = system: MDA-MB-435
# MDA-N = system: MDA-N
# NCI-H226 lung = system: NCI-H226 lung
# NCI-H23 lung = system: NCI-H23 lung
# NCI-H460 lung = system: NCI-H460 lung
# NCI-H522 lung = system: NCI-H522 lung
# NCI/ADR-RES ovarian = system: NCI/ADR-RES ovarian
# OVCAR-3 ovarian = system: OVCAR-3 ovarian
# OVCAR-4 ovarian = system: OVCAR-4 ovarian
# OVCAR-5 ovarian = system: OVCAR-5 ovarian
# OVCAR-8 ovarian = system: OVCAR-8 ovarian
# PC-3 prostate = system: PC-3 prostate
# RPMI-8226 leukemia = system: RPMI-8226 leukemia
# RXF 393 renal = system: RXF 393 renal
# SF-268 CNS = system: SF-268 CNS
# SF-295 CNS = system: SF-295 CNS
# SK-MEL-2 melanoma = system: SK-MEL-2 melanoma
# SK-MEL-28 melanoma = system: SK-MEL-28 melanoma
# SK-MEL-5 melanoma = system: SK-MEL-5 melanoma
# SK-OV-3 ovarian = system: SK-OV-3 ovarian
# SN12C renal = system: SN12C renal
# SNB-19 CNS = system: SNB-19 CNS
# SNB-75 CNS = system: SNB-75 CNS
# SW-620 colon = system: SW-620 colon
# T-47D breast = system: T-47D breast
# TK-10 renal = system: TK-10 renal
# U251 CNS = system: U251 CNS
# UACC-257 melanoma = system: UACC-257 melanoma
# UACC-62 melanoma = system: UACC-62 melanoma
# UO-31 renal = system: UO-31 renal
# CCRF-CEM leukemia = system: CCRF-CEM leukemia
# SR leukemia = system: SR leukemia
# MOLT-4 leukemia = system: MOLT-4 leukemia
# SF-539 CNS = system: SF-539 CNS
smiles,measurement,setting,value
O=C1CCC(=Nc2ccc(Cl)cc2)N1C(=O)COc1ccc(OCC(=O)N2C(=O)CSC2=Nc2ccc(Cl)cc2)cc1,TGI,786-0 renal,> 100 µM
same,TGI,A498 renal,> 100 µM
same,TGI,A549 NSCLC,> 100 µM
same,TGI,ACHN renal,> 100 µM
same,TGI,BT-549 breast,> 100 µM
same,TGI,CAKI-1 renal,> 100 µM
same,TGI,COLO 205 colon,> 100 µM
same,TGI,DU-145 prostate,> 100 µM
same,TGI,EKVX NSCLC,> 100 µM
same,TGI,HCC-2998 colon,> 100 µM
same,TGI,HCT-116 colon,> 100 µM
same,TGI,HCT-15 colon,> 100 µM
same,TGI,HL-60(TB) leukemia,> 100 µM
same,TGI,HOP-62 NSCLC,> 100 µM
same,TGI,HOP-92 NSCLC,> 100 µM
same,TGI,HS 578T breast,> 100 µM
same,TGI,HT29 colon,> 100 µM
same,TGI,IGROV1 ovarian,> 100 µM
same,TGI,K-562 leukemia,> 100 µM
same,TGI,KM12 colon,> 100 µM
same,TGI,LOX IMVI melanoma,> 100 µM
same,TGI,M14 melanoma,> 100 µM
same,TGI,MALME-3M melanoma,> 100 µM
same,TGI,MCF7 breast,> 100 µM
same,TGI,MDA-MB-231 breast,> 100 µM
same,TGI,MDA-MB-435,> 100 µM
same,TGI,MDA-N,> 100 µM
same,TGI,NCI-H226 lung,> 100 µM
same,TGI,NCI-H23 lung,> 100 µM
same,TGI,NCI-H460 lung,> 100 µM
same,TGI,NCI-H522 lung,> 100 µM
same,TGI,NCI/ADR-RES ovarian,> 100 µM
same,TGI,OVCAR-3 ovarian,> 100 µM
same,TGI,OVCAR-4 ovarian,> 100 µM
same,TGI,OVCAR-5 ovarian,> 100 µM
same,TGI,OVCAR-8 ovarian,> 100 µM
same,TGI,PC-3 prostate,> 100 µM
same,TGI,RPMI-8226 leukemia,> 100 µM
same,TGI,RXF 393 renal,> 100 µM
same,TGI,SF-268 CNS,> 100 µM
same,TGI,SF-295 CNS,> 100 µM
same,TGI,SK-MEL-2 melanoma,> 100 µM
same,TGI,SK-MEL-28 melanoma,> 100 µM
same,TGI,SK-MEL-5 melanoma,> 100 µM
same,TGI,SK-OV-3 ovarian,> 100 µM
same,TGI,SN12C renal,> 100 µM
same,TGI,SNB-19 CNS,> 100 µM
same,TGI,SNB-75 CNS,91.9 µM
same,TGI,SW-620 colon,> 100 µM
same,TGI,T-47D breast,> 100 µM
same,TGI,TK-10 renal,> 100 µM
same,TGI,U251 CNS,> 100 µM
same,TGI,UACC-257 melanoma,> 100 µM
same,TGI,UACC-62 melanoma,> 100 µM
same,TGI,UO-31 renal,> 100 µM
NC(CSCc1ccccc1)C(=O)O (configuration not stated),TGI,786-0 renal,> 100 µM
same,TGI,A498 renal,> 100 µM
same,TGI,A549 NSCLC,> 100 µM
same,TGI,ACHN renal,> 100 µM
same,TGI,BT-549 breast,> 100 µM
same,TGI,CAKI-1 renal,> 100 µM
same,TGI,CCRF-CEM leukemia,> 100 µM
same,TGI,COLO 205 colon,> 100 µM
same,TGI,DU-145 prostate,> 100 µM
same,TGI,EKVX NSCLC,> 100 µM
same,TGI,HCC-2998 colon,> 100 µM
same,TGI,HCT-116 colon,> 100 µM
same,TGI,HCT-15 colon,> 100 µM
same,TGI,HL-60(TB) leukemia,> 100 µM
same,TGI,HOP-62 NSCLC,> 100 µM
same,TGI,HOP-92 NSCLC,> 100 µM
same,TGI,HS 578T breast,> 100 µM
same,TGI,HT29 colon,> 100 µM
same,TGI,IGROV1 ovarian,> 100 µM
same,TGI,K-562 leukemia,> 100 µM
same,TGI,KM12 colon,> 100 µM
same,TGI,LOX IMVI melanoma,> 100 µM
same,TGI,M14 melanoma,> 100 µM
same,TGI,MALME-3M melanoma,> 100 µM
same,TGI,MCF7 breast,> 100 µM
same,TGI,MDA-MB-231 breast,> 100 µM
same,TGI,MDA-MB-435,> 100 µM
same,TGI,MDA-N,> 100 µM
same,TGI,NCI-H226 lung,> 100 µM
same,TGI,NCI-H23 lung,> 100 µM
same,TGI,NCI-H460 lung,> 100 µM
same,TGI,NCI-H522 lung,> 100 µM
same,TGI,NCI/ADR-RES ovarian,> 100 µM
same,TGI,OVCAR-3 ovarian,> 100 µM
same,TGI,OVCAR-4 ovarian,> 100 µM
same,TGI,OVCAR-5 ovarian,> 100 µM
same,TGI,OVCAR-8 ovarian,> 100 µM
same,TGI,PC-3 prostate,> 100 µM
same,TGI,RPMI-8226 leukemia,> 100 µM
same,TGI,RXF 393 renal,> 100 µM
same,TGI,SF-268 CNS,> 100 µM
same,TGI,SF-295 CNS,> 100 µM
same,TGI,SK-MEL-2 melanoma,> 100 µM
same,TGI,SK-MEL-28 melanoma,> 100 µM
same,TGI,SK-MEL-5 melanoma,> 100 µM
same,TGI,SK-OV-3 ovarian,> 100 µM
same,TGI,SN12C renal,> 100 µM
same,TGI,SNB-19 CNS,> 100 µM
same,TGI,SNB-75 CNS,> 100 µM
same,TGI,SR leukemia,> 100 µM
same,TGI,SW-620 colon,> 100 µM
same,TGI,T-47D breast,> 100 µM
same,TGI,TK-10 renal,> 100 µM
same,TGI,U251 CNS,> 100 µM
same,TGI,UACC-257 melanoma,> 100 µM
same,TGI,UACC-62 melanoma,> 100 µM
same,TGI,UO-31 renal,> 100 µM
CN(C)NC(=S)Nc1ccccc1Br,TGI,786-0 renal,> 100 µM
same,TGI,A498 renal,> 100 µM
same,TGI,A549 NSCLC,> 100 µM
same,TGI,ACHN renal,> 100 µM
same,TGI,BT-549 breast,> 100 µM
same,TGI,CAKI-1 renal,> 100 µM
same,TGI,CCRF-CEM leukemia,> 100 µM
same,TGI,COLO 205 colon,> 100 µM
same,TGI,DU-145 prostate,> 100 µM
same,TGI,EKVX NSCLC,> 100 µM
same,TGI,HCT-116 colon,> 100 µM
same,TGI,HCT-15 colon,> 100 µM
same,TGI,HL-60(TB) leukemia,> 100 µM
same,TGI,HOP-92 NSCLC,> 100 µM
same,TGI,HS 578T breast,> 100 µM
same,TGI,HT29 colon,> 100 µM
same,TGI,IGROV1 ovarian,> 100 µM
same,TGI,K-562 leukemia,> 100 µM
same,TGI,KM12 colon,> 100 µM
same,TGI,LOX IMVI melanoma,> 100 µM
same,TGI,M14 melanoma,> 100 µM
same,TGI,MALME-3M melanoma,> 100 µM
same,TGI,MCF7 breast,> 100 µM
same,TGI,MDA-MB-231 breast,> 100 µM
same,TGI,MDA-MB-435,> 100 µM
same,TGI,MDA-N,> 100 µM
same,TGI,MOLT-4 leukemia,> 100 µM
same,TGI,NCI-H226 lung,> 100 µM
same,TGI,NCI-H23 lung,> 100 µM
same,TGI,NCI-H460 lung,> 100 µM
same,TGI,NCI-H522 lung,> 100 µM
same,TGI,NCI/ADR-RES ovarian,> 100 µM
same,TGI,OVCAR-3 ovarian,> 100 µM
same,TGI,OVCAR-4 ovarian,> 100 µM
same,TGI,OVCAR-5 ovarian,> 100 µM
same,TGI,OVCAR-8 ovarian,> 100 µM
same,TGI,PC-3 prostate,> 100 µM
same,TGI,RPMI-8226 leukemia,> 100 µM
same,TGI,RXF 393 renal,> 100 µM
same,TGI,SF-295 CNS,> 100 µM
same,TGI,SF-539 CNS,> 100 µM
same,TGI,SK-MEL-2 melanoma,> 100 µM
same,TGI,SK-MEL-28 melanoma,> 100 µM
same,TGI,SK-MEL-5 melanoma,> 100 µM
same,TGI,SK-OV-3 ovarian,> 100 µM
same,TGI,SNB-19 CNS,> 100 µM
same,TGI,SNB-75 CNS,> 100 µM
same,TGI,SR leukemia,> 100 µM
same,TGI,SW-620 colon,> 100 µM
same,TGI,T-47D breast,> 100 µM
same,TGI,TK-10 renal,> 100 µM
same,TGI,U251 CNS,> 100 µM
same,TGI,UACC-257 melanoma,> 100 µM
same,TGI,UACC-62 melanoma,> 100 µM
same,TGI,UO-31 renal,> 100 µM
